Test results from patent US9592223B2, “Small molecule inhibitors of MALT1” (Cornell University, priority 2012, dated 2017).
Where two headings read alike, the source gives them in different places.

Assays:
OCI-Ly3 cells = assay: Growth inhibition, ATP-based luminescent assay; format: cell-based; conditions: Homo sapiens; OCI-Ly3, single dose, 48 hr
Experimental: (§1) Cell proliferation was determined by ATP quantification using a luminescent method (CellTiter-Glo, Promega, Madison, Wis.) and Trypan blue dye-exclusion (Sigma, St. Louis, Mo.). Cell viability in drug-treated cells was normalized to their respective controls (fractional viability) and results are given as 1-fractional viability. CompuSyn software (Biosoft, Cambridge, UK) was used to determine drug concentrations inhibiting fractional growth compared to controls.
(§2) DLBCL cell lines were grown in exponential growth conditions during the 48 hr of treatment. Cell proliferation was determined by ATP quantification using a luminescent method (CellTiter-Glo, Promega, Madison, Wis.) and Trypan blue dye-exclusion (Sigma, St. Louis, Mo.). Luminescence was measured using the Synergy4 microplate reader (BioTek Instruments, Winooski, Vt.). Standard curves for each cell line were calculated by plotting the cell number (determined by the Trypan blue method) against their luminescence values and number of cells was calculated accordingly. Cell viability in drug-treated cells was normalized to their respective controls (fractional viability) and results are given as 1-fractional viability. CompuSyn software (Biosoft, Cambridge, UK) was used to determine the drug concentration that inhibits the growth of cell lines by […]. Experiments were performed in triplicate.

OCI-Ly10 cells = assay: Growth inhibition, ATP-based luminescent assay; format: cell-based; conditions: Homo sapiens; OCI-Ly10, single dose, 48 hr
Experimental: as §1, §2

HBL-1 cells = assay: Growth inhibition, ATP-based luminescent assay; format: cell-based; conditions: Homo sapiens, HBL1
Experimental: as §1, §2

OCI-Ly1 xenografts = assay: OCI-Ly1 xenograft in NOD-SCID mice; format: in vivo; conditions: IP 25 mg/kg/day
Experimental: (§3) Animals were sacrificed 24 hr after the fourteenth injection.
(§4) Eight-week old male SCID NOD.CB17-Prkdc^scid/J mice were subcutaneously injected with low-passage 10^7 human HBL-1, TMD8 or OCI-Ly1 cells. Treatment was administered by intra-peritoneal injection. Tumor volume was monitored by three-weekly digital calipering. All procedures followed US NIH protocols and were approved by the Animal Institute Committee of the Weill Cornell Medical College.
Eight-week old male SCID NOD.CB17-Prkdc^scid/J mice were purchased from Jackson Laboratories (Bar Harbor, Minn.) and housed in a clean environment. Mice were subcutaneously injected with low-passage 10^7 human TMD8 or OCI-Ly1 cells in 50% matrigel (BD Biosciences, #354234). Treatment was initiated when tumors reached an average size of 120 mm^3 (17 days post-transplantation). Drugs were reconstituted in DMSO and stored at −80° C. until used and were administered by intra-peritoneal injection. Tumor volume was monitored by three-weekly digital calipering (Fisher Scientific, Thermo Scientific, Rockford, Ill.) and calculated using the formula (smallest diameter^2×largest diameter)/2. Data were expressed as mean±SEM, and differences were considered statistically significant at p<0.05 by paired Student's t-test. […]

[1] = system: HBL-1 ABC-DLBCL xenografts; assay: HBL-1 xenograft in NOD-SCID mice; format: in vivo; conditions: IP 25 mg/kg/day
Experimental: as §3, §4
Eight-week old male SCID NOD.CB17-Prkdc^scid/J mice were purchased from Jackson Laboratories (Bar Harbor, Minn.) and housed in a clean environment. Mice were subcutaneously injected with low-passage 10^7 human TMD8 or OCI-Ly1 cells in 50% matrigel (BD Biosciences, #354234). Treatment was initiated when tumors reached an average size of 120 mm^3 (17 days post-transplantation). Drugs were reconstituted in DMSO and stored at −80° C. until used and were administered by intra-peritoneal injection. Tumor volume was monitored by three-weekly digital calipering (Fisher Scientific, Thermo Scientific, Rockford, Ill.) and calculated using the formula (smallest diameter^2×largest diameter)/2. Data were expressed as mean±SEM, and differences were considered statistically significant at p<0.05 by paired Student's t-test. All procedures involving animals followed US NIH protocols and were approved by the Animal Institute Committee of the Weill Cornell Medical College of Cornell University.
Paraffin-embedded tumor xenografts were sectioned, dewaxed and submitted to antigen retrieval. For IF-P, Alexa Fluor-488 conjugated secondary antibodies from Invitrogen where used and cell nuclei where counterstained with DAPI. Fluorescent images were taken using an Axiovert 200M fluorescent microscope (Carl Zeiss Inc., Thornwood, N.Y.). Oberkochen, Germany). For IHC, biotin-conjugated secondary antibodies where used. Then avidin/biotin peroxidase was applied to the slides (Vector Laboratories). Color was developed with diaminobenzoate chromogen peroxidase substrate (Vector) and counterstained with hematoxilin-eosyn. […]

For `COCCOc1nc(-c2ccc(Cl)c(Cl)c2)n(-c2ccc(NC(=O)CCl)cc2)n1` [MI-2], the GI50 (OCI-Ly3 cells) was 400 nM, the GI50 (OCI-Ly10 cells) was 400 nM and the GI50 (HBL-1 cells; HBL-1, single dose, 48 hr, read-out: GI50) was 200 nM. For the same molecule, the GI50 (HBL-1 cells; HBL-1, read-out: GI50 concentration) was 200 nM, the “tumor growth vs. vehicle” value (OCI-Ly1 xenografts; fourteen injections, p=0.47) was “no effect on the growth” and the “proliferation (Ki-67 staining)” value (OCI-Ly1 xenografts; p=1.0) was “no difference”. For the same molecule, the “xenograft growth vs. vehicle” value ([1]; fourteen injections, p=0.014) was “profoundly suppressed the growth”, the “proliferation (Ki-67 staining)” value ([1]; p<0.0001) was “significant decrease in proliferation” and the “apoptotic cells (TUNEL assay)” value ([1]; p=0.0008) was “significant increase in apoptotic cells”.
